Assay results taken from ChEMBL document CHEMBL1201862, “PubChem BioAssay data set” (2004).
The source made the active and inactive calls.

Columns and labels:
Beta-lactamase [1] = molecular target: Beta-lactamase (Salmonella choleraesuis (strain SC-B67), UniProt Q5J463); assay: Epi-absorbance-based counterscreen for selective VIM-2 inhibitors: dose response biochemical high throughput screening assay to identify inhibitors of TEM-1 serine-beta-lactamase.
Beta-lactamase [2] = molecular target: T1, Beta-lactamase (Pseudomonas aeruginosa, UniProt Q79MP6); assay: inhibition of IMP-1 beta-lactamase activity – biochemical, epi-absorbance, selectivity assay for VIM-2 inhibitor project, dose response (AID 1920)
T1 sequence (Q79MP6 whole entry): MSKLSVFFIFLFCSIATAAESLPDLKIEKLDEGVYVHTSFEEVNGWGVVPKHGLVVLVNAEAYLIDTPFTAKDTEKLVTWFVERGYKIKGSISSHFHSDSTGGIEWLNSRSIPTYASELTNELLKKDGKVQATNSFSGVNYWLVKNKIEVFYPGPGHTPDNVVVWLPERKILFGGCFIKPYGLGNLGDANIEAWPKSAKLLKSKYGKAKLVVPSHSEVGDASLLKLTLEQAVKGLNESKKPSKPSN

Beta-lactamase [3] = molecular target: T1, Beta-lactamase; assay: […] counterscreen for selective VIM-2 inhibitors: dose response biochemical high throughput screening assay to identify inhibitors of IMP-1 metallo-beta-lactamase.
[4] = molecular target: Tyrosine-protein phosphatase non-receptor type 11 (Homo sapiens, UniProt Q06124); assay: PTPN11 enzyme inhibitors – biochemical, selectivity assay for STEP inhibitor project, dose response (AID 602367); type: functional; settings: read-out: IC50_Mean
Sequence of Tyrosine-protein phosphatase non-receptor type 11 (Q06124 whole entry): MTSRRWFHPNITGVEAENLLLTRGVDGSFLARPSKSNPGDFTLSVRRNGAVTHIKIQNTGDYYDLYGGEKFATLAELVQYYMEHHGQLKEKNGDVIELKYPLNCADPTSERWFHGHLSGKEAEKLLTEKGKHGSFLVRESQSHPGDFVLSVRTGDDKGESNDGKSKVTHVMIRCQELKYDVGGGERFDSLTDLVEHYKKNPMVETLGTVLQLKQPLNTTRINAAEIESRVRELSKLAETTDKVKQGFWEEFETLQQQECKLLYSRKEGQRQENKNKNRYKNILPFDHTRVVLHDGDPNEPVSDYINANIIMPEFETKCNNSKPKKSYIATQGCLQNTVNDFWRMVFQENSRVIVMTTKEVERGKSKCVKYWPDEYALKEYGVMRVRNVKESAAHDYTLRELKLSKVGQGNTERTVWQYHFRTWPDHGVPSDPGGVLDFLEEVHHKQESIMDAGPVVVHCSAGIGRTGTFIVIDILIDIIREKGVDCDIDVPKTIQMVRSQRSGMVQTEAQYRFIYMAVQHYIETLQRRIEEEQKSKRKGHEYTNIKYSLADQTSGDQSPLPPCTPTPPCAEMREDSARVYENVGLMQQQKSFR

[5] = molecular target: Tyrosine-protein phosphatase non-receptor type 5 (Homo sapiens, UniProt P54829); assay: PTPN5 enzyme inhibition – biochemical, fluorescence intensity, uHTS hits, confirmation (AID 602372); type: functional; settings: read-out: IC50_Mean
Sequence of Tyrosine-protein phosphatase non-receptor type 5 (P54829 whole entry): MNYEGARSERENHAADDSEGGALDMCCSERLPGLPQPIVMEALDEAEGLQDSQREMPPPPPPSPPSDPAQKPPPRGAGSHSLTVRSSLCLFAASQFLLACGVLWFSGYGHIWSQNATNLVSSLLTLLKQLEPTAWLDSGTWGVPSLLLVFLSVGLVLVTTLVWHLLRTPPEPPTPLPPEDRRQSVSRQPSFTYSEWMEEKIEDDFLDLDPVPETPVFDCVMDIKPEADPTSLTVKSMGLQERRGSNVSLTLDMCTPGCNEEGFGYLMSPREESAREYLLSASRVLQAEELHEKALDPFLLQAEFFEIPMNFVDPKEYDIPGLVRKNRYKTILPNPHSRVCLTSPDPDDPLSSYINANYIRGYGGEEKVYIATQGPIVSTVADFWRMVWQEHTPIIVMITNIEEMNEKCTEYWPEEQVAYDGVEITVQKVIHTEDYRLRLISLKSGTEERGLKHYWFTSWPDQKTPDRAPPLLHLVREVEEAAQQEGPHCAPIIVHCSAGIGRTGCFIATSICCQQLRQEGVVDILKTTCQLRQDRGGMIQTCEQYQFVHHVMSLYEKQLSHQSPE

[6] = molecular target: Dual specificity protein phosphatase 3 (Homo sapiens, UniProt P51452); assay: VHR phosphatase inhibition, dose response, selectivity assay for STEP inhibitor project, biochemical (AID 602374); type: functional; settings: read-out: IC50_Mean
Sequence of Dual specificity protein phosphatase 3 (P51452 whole entry): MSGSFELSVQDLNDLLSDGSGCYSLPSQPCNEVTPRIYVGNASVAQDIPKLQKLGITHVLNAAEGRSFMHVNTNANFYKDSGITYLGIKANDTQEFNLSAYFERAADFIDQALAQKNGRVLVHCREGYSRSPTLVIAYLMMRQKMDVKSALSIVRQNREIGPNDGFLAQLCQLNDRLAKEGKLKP

[7] = molecular target: T2, Tyrosine-protein phosphatase non-receptor type 22 (Homo sapiens, UniProt Q9Y2R2); assay: lymphoid phosphatase LYP inhibitors – biochemical, selectivity assay for STEP inhibitor project, dose response (AID 624241); type: functional
T2 sequence (Q9Y2R2 whole entry): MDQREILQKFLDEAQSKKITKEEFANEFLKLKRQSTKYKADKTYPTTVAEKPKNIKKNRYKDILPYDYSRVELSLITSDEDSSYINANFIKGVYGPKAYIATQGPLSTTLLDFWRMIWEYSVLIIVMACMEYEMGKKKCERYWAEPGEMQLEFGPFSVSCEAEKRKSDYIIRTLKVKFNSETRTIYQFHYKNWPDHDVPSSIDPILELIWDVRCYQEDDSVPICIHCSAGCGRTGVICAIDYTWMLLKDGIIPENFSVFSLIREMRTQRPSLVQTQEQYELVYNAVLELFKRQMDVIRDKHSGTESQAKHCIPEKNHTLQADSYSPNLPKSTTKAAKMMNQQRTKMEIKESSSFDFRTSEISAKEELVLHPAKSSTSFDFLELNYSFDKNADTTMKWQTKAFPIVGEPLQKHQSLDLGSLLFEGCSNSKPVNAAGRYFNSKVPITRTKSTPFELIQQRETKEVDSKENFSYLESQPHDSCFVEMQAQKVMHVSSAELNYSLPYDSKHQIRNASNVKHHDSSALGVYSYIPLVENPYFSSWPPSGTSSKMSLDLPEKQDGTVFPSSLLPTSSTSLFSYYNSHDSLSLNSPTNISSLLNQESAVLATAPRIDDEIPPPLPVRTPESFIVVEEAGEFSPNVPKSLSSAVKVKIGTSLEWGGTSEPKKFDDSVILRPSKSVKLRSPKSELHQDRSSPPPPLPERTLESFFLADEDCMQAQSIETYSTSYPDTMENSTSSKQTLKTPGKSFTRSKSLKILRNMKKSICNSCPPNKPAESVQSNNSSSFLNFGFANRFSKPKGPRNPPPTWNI

[8] = cytotoxicity in HEK293 background cells – cell-based, dry powder, set 2, counter-screen for EBV LMP1 inhibitor project, dose response (AID 624374); type: functional
[9] = inhibitors of EBV LMP1 NF-kappaB signaling – cell-based, luciferase reporter, luminescence, dry powder, set 2, dose response (AID 624376); type: functional
[10] = molecular target: T3, RNA-binding protein pos-1 (Caenorhabditis elegans, UniProt G5EF15); assay: disruptors of C. elegans POS-1 RNA interaction – biochemical, fluorescence polarization, dose response (AID 1964);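 also: purified POS-1 fused to maltose binding protein made in E. coli; potency of compounds blocking POS-1 binding to fluorescent RNA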
T3 sequence (G5EF15 whole entry): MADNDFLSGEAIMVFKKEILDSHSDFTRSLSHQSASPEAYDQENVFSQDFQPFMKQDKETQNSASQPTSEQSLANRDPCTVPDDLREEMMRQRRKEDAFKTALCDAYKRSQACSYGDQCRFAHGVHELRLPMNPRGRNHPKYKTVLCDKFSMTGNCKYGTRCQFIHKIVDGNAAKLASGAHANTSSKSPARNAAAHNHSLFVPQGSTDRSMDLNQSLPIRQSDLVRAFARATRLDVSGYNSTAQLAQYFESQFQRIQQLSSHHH

[11] = molecular target: T4, Zinc finger protein mex-5 (Caenorhabditis elegans, UniProt Q9XUB2); assay: potency of MEX-5 RNA-binding blockers – biochemical, C. elegans, fluorescence polarization, dose response (AID 1960)
T4 sequence (Q9XUB2 whole entry): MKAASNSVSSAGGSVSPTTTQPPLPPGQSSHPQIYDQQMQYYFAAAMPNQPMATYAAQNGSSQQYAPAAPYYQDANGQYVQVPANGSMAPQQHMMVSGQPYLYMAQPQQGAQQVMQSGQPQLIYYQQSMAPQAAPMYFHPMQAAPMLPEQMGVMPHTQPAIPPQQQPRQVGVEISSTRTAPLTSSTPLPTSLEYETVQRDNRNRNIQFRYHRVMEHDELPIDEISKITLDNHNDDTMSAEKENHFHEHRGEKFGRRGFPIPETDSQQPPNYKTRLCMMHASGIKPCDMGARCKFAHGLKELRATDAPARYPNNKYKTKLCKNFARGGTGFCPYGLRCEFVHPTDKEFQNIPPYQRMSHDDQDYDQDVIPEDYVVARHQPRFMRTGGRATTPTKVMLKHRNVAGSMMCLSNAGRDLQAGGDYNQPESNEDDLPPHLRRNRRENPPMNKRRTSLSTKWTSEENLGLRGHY

Beta-galactosidase = Beta-galactosidase (Escherichia coli, UniProt Q8VNN2); assay: PubChem AID 485352; type: functional
Sequence of Beta-galactosidase (Q8VNN2 whole entry): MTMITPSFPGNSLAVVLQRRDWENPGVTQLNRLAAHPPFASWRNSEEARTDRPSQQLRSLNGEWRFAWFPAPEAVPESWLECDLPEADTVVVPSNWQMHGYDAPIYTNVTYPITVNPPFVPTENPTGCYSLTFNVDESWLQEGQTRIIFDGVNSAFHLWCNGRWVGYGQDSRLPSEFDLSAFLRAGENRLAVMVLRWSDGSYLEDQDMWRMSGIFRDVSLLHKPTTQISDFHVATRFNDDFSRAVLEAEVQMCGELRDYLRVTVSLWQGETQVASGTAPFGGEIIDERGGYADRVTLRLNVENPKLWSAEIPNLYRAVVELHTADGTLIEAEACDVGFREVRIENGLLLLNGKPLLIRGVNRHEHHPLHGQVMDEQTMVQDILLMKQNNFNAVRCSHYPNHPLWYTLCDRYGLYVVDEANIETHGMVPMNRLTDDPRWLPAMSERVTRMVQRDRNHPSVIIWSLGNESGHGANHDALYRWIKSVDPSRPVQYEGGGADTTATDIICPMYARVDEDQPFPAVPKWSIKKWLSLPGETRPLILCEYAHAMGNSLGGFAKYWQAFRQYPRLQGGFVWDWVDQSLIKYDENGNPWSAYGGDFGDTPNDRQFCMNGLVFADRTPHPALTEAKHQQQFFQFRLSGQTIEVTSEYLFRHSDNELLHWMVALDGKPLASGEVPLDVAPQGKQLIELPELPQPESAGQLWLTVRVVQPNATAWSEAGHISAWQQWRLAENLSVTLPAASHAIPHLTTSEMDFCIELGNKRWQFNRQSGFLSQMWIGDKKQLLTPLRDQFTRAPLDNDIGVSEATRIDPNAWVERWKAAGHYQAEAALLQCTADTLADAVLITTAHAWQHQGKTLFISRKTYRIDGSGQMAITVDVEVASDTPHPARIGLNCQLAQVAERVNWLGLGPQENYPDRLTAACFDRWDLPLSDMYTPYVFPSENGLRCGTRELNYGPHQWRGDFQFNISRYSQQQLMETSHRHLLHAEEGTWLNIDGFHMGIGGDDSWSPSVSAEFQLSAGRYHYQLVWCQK

[12] = molecular target: T5, Type-1 angiotensin II receptor (Homo sapiens, UniProt P30556); assay: antagonism of angiotensin II type 1 receptor – cell-based, uHTS hits, selectivity assay for APJ receptor antagonist project, dose response (AID 463214); type: functional;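 also: antagonist potency against angiotensin II stimulated AT1 response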
T5 sequence (P30556 whole entry): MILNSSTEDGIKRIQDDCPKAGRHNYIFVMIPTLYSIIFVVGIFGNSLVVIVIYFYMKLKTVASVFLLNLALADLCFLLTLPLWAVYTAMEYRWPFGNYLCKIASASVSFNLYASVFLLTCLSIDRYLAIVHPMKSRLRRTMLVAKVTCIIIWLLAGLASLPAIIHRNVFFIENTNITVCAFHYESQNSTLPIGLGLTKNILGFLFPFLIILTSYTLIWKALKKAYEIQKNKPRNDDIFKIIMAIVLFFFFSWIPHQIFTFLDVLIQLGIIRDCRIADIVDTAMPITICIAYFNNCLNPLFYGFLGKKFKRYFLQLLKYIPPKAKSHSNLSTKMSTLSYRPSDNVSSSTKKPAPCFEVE

Hexokinase HKDC1 = molecular target: T6, Hexokinase HKDC1 (Homo sapiens, UniProt Q2TB90); assay: activation of HKDC1 glucose phosphorylation – biochemical, W721R variant, dose response (AID 504730); type: functional
T6 sequence (Q2TB90 whole entry): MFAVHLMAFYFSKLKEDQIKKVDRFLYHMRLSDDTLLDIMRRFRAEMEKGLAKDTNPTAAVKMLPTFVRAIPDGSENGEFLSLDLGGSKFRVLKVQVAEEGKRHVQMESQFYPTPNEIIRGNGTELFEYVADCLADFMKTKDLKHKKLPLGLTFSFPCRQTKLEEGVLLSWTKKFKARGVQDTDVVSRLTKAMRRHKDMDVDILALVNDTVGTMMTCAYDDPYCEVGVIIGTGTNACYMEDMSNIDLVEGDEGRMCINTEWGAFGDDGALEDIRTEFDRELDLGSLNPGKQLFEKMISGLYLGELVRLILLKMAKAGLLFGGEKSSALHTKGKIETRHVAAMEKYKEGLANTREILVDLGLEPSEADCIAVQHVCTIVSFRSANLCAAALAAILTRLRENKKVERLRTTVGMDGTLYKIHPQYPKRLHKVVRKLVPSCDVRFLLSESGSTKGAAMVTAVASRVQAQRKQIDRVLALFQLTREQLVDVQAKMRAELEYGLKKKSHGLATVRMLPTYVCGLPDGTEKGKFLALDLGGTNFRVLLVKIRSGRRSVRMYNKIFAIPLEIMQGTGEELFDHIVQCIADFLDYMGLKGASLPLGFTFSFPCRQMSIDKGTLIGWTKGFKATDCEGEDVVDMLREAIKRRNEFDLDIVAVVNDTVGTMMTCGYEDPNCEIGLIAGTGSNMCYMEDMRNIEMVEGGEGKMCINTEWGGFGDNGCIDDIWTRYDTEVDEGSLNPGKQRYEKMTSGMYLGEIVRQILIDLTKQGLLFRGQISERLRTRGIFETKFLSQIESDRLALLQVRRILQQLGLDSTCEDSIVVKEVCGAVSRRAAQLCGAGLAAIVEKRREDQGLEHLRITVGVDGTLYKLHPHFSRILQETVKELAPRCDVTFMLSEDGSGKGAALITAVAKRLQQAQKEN

Hexokinase-1 = molecular target: T7, Hexokinase-1 (Homo sapiens, UniProt P19367); assay: HK1 enzyme activation by HKDC1 hits – biochemical, selectivity assay for HKDC1 activator project, dose response (AID 504762); type: functional
T7 sequence (P19367 whole entry): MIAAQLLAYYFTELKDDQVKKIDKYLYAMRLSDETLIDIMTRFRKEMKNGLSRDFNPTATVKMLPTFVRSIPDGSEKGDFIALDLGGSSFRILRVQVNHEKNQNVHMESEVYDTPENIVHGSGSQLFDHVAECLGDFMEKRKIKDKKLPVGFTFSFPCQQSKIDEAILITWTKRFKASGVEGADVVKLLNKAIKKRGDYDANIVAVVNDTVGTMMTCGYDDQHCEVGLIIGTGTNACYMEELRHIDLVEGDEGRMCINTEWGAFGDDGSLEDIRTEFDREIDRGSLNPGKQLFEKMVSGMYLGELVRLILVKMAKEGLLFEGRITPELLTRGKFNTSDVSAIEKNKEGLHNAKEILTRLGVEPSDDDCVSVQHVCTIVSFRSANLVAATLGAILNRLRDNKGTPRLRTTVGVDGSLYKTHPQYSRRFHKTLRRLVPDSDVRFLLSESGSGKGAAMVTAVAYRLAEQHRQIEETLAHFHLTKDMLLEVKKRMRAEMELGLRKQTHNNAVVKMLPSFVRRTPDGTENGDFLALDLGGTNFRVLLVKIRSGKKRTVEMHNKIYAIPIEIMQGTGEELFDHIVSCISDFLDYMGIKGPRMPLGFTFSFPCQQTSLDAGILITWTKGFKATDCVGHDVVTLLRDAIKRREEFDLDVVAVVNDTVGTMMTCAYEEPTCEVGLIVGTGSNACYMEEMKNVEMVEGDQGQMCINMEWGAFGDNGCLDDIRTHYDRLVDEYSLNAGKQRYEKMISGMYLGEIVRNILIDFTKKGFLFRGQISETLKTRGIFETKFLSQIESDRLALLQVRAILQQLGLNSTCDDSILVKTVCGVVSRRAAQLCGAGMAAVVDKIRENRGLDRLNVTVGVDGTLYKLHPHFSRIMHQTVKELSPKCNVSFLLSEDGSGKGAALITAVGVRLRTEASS

[13] = molecular target: T8, Endoribonuclease toxin MazF (Escherichia coli K-12, UniProt P0AE70); assay: activation of MazEF endoribonuclease cleavage – biochemical, fluorescence, single-stranded RNA substrate, uHTS hits, dose response (AID 588481); type: functional
T8 sequence (P0AE70 whole entry): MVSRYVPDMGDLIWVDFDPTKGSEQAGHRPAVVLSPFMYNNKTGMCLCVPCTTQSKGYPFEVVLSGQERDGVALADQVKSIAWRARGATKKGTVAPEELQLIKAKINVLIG

[14] = molecular target: T8, Endoribonuclease toxin MazF; assay: substrate-only fluorescence increase artefacts – biochemical, single-stranded RNase substrate, counter-screen for MazEF activator project, dose response (AID 588502); type: functional
Vero = assay: cells; type: functional; settings: Chlorocebus sabaeus
[15] = molecular target: Hepatocyte nuclear factor 4-alpha (Homo sapiens, UniProt P41235); type: functional, cell-based;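 also: biochemical luminescence-based dose-response counterscreen measuring inhibition of HNF4 dimerization, run alongside a screen for blockers of ABHD5–perilipin-5 interaction; split luciferase complementation of HNF4 fusion proteins in cell lysate measuring dimerization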
Sequence of Hepatocyte nuclear factor 4-alpha (P41235 whole entry, the tested form may be a part): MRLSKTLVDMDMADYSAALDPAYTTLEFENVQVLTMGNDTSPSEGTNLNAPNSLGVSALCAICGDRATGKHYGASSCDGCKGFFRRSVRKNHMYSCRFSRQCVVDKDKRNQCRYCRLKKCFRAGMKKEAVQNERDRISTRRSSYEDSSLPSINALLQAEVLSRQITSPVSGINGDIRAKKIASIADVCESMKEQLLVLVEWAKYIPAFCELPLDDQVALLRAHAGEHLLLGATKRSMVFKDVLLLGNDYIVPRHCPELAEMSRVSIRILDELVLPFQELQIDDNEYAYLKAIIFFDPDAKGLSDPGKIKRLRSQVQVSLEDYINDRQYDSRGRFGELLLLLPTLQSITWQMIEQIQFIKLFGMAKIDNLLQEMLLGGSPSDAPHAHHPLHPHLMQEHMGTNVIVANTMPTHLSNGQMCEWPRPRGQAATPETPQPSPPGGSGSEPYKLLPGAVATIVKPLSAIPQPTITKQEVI

Sequence of Beta-lactamase (Salmonella choleraesuis (strain SC-B67), UniProt Q5J463) (Q5J463 whole entry): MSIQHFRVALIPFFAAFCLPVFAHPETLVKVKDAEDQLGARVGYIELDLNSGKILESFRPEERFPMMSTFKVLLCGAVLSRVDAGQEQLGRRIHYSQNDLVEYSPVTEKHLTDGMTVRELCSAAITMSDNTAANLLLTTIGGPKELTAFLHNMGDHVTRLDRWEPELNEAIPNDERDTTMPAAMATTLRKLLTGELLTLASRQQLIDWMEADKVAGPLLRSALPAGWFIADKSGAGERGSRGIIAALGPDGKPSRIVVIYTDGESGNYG

In the case of `CCN(CC)C(=O)CSc1nc2ccc(NC(=O)CSc3nccn3C)cc2s1`, the IC50 (Beta-lactamase [1]) is reported as > 59.6 µM (inactive), the IC50 (Beta-lactamase [2]) is reported as > 59.6 µM (inactive) and the IC50 (Beta-lactamase [3]) is reported as > 59.6 µM (inactive).
For `CCC(CC)c1nnc(NC(=O)c2cc(C(=O)OC)cc([N+](=O)[O-])c2)s1`, the IC50 [4] was 2.28 µM (active), the IC50 [5] was 8.62 µM (active) and the IC50 [6] was 0.567 µM (active). The IC50 [7] was 75.6 µM (inactive).
Work on `O=C(Cc1ccccn1)NCC[C@@H]1CC[C@H](NC(=O)Nc2ccc(Cl)cc2)[C@@H](CO)O1` yielded an AbsAC35 [8] of 102.52 µM and an AbsAC35 [9] of 74.18 µM.
In the case of `CC(=O)C1=C(c2cccc([N+](=O)[O-])c2)N(C(C)=O)n2c(C)nnc2S1`, the EC50 [10] is reported as 44.2 µM (active), the EC50 [11] is reported as > 300 µM (inconclusive) and the EC50 (Beta-galactosidase) is reported as 15 µM (active). For the same compound, the IC50 [12] was 8.72 µM (active), the EC50 (Hexokinase HKDC1) was 8.32 µM (active) and the EC50 (Hexokinase-1) was 6.54 µM (active). The EC50 [13] was 20.5 µM (inactive), the EC50 [14] was 45.2 µM (inactive) and the CC50 (Vero) was 24.4 µM (active). For the same compound, the IC50 [15] was 4.27 µM (active).
